Consider 8 compounds from ChEMBL document CHEMBL1201862, “PubChem BioAssay data set” (2004).

Among the test systems are NCI-H522; LOX IMVI; RPMI-8226; MDA-MB-435; NCI-H226; MDA-MB-231; UACC-257; A498; UACC-62; T47D; SW-620; SK-MEL-28; NCI/ADR-RES; HOP-62; MOLT-4; SNB-75; OVCAR-4; NCI-H23; OVCAR-8; A549.
Holding throughout (assay): NCI-60 cell line screen, 48 h

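Results reflect a 48-hour exposure of cells in 96-well plates to compound at five concentrations. GI50: concentration for 50% inhibition of growth.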 Active and inactive are the calls of the source. Rule as the data show it: active = GI50 up to about 1.1 µM and inactive = higher.

As for `C/C(=N\Nc1ccc([N+](=O)[O-])cc1[N+](=O)[O-])c1sc(-n2nc(-c3ccccc3)cc2-c2ccccc2)nc1C`, the GI50 in the assay with NCI-H522 was 22 µM (inactive); in the assay on LOX IMVI, 11.9 µM (inactive); in the assay on RPMI-8226, 20.9 µM (inactive); in the assay with MDA-MB-435, 33 µM (inactive); in the assay with NCI-H226, 34.1 µM (inactive); in the assay on MDA-MB-231, 44.4 µM (inactive). Also, the GI50 with UACC-257 was 20.8 µM (inactive); in the assay with A498 it was 41 µM (inactive); in the assay on UACC-62 it was 53.6 µM (inactive); in the assay with T47D it was 13.8 µM (inactive); with SW-620, 26.3 µM (inactive); in the assay on SK-MEL-28 it was 90.2 µM (inactive). For the same compound, the GI50 was 21.9 µM (inactive) in the assay with NCI/ADR-RES; 70.3 µM (inactive) in the assay with HOP-62; 16.9 µM (inactive) in the assay with MOLT-4; 45.5 µM (inactive) with SNB-75; 43.9 µM (inactive) in the assay on OVCAR-4; 32.9 µM (inactive) with NCI-H23. In the assay with OVCAR-8, the GI50 is 30.5 µM (inactive).
In the case of `CN(C)c1ccc(/C=C/c2ccnc3ccccc23)cc1`, the GI50 is 53.3 µM (inactive) in the assay with LOX IMVI; 51.1 µM (inactive) with RPMI-8226; 23.1 µM (inactive) in the assay with MDA-MB-435; 61.4 µM (inactive) in the assay with A549; 23.3 µM (inactive) in the assay with MDA-MB-231; > 100 µM (inactive) in the assay with UACC-257. In addition, the GI50 in the assay on A498 is > 100 µM (inactive); with UACC-62, 43.1 µM (inactive); in the assay with T47D, 96.8 µM (inactive); with SW-620, 39.4 µM (inactive); with SK-MEL-28, 72.6 µM (inactive); in the assay on NCI/ADR-RES, 64.3 µM (inactive). Moreover, the GI50 in the assay with HOP-62 is > 100 µM (inactive); in the assay on SNB-75, 28.8 µM (inactive); in the assay on OVCAR-4, 55.6 µM (inactive); with NCI-H23 it was 39.4 µM (inactive).
Consider `O=C1NC(=S)N/C1=C\c1ccc(Sc2ccccc2C(=O)O)s1`, for which the GI50 was 22.1 µM (inactive) with NCI-H522; > 100 µM (inactive) in the assay on LOX IMVI; > 100 µM (inactive) with RPMI-8226; > 100 µM (inactive) in the assay on MDA-MB-435; > 100 µM (inactive) in the assay with NCI-H226; > 100 µM (inactive) in the assay with MDA-MB-231. Moreover, the GI50 in the assay with UACC-257 was > 100 µM (inactive); in the assay with A498 it was > 100 µM (inactive); with UACC-62 it was 85.3 µM (inactive); in the assay on T47D, > 100 µM (inactive); in the assay with SW-620, > 100 µM (inactive); in the assay with SK-MEL-28, > 100 µM (inactive). In addition, the GI50 with NCI/ADR-RES, in the assay with HOP-62, in the assay on MOLT-4, with SNB-75, in the assay with OVCAR-4 and in the assay on NCI-H23 was > 100 µM (inactive) each time. Further, in the assay on OVCAR-8, the GI50 was > 100 µM (inactive).
Take `O=[N+]([O-])c1ccc(/C=N/CC2CCCN3CCCCC23)cc1` (centres undefined): the GI50 with NCI-H522 is > 100 µM (inactive); with LOX IMVI, 15.5 µM (inactive); in the assay with RPMI-8226, 17.3 µM (inactive); in the assay on MDA-MB-435, 61.7 µM (inactive); in the assay on A549, 36.2 µM (inactive); in the assay with MDA-MB-231, > 100 µM (inactive). Moreover, the GI50 in the assay on UACC-257 was > 100 µM (inactive); in the assay with A498 it was > 100 µM (inactive); in the assay on UACC-62, > 100 µM (inactive); in the assay on T47D, > 100 µM (inactive); in the assay with SW-620, 32.2 µM (inactive); in the assay on SK-MEL-28, > 100 µM (inactive). Also, the GI50 was > 100 µM (inactive) in the assay on NCI/ADR-RES; > 100 µM (inactive) in the assay with HOP-62; 22.9 µM (inactive) in the assay on MOLT-4; 31.6 µM (inactive) with SNB-75; > 100 µM (inactive) in the assay with OVCAR-4; > 100 µM (inactive) in the assay on NCI-H23. Also, the GI50 with OVCAR-8 was 43.2 µM (inactive).
With `CCOC(=O)c1cc2c([nH]1)C(=O)CC1=C2CCN1Cc1ccccc1`, the GI50 was 17.9 µM (inactive) in the assay on NCI-H522; 13.3 µM (inactive) with LOX IMVI; 3.81 µM (inactive) in the assay with RPMI-8226; 13.2 µM (inactive) in the assay with MDA-MB-435; 0.585 µM (active) in the assay with NCI-H226; 21.4 µM (inactive) in the assay on A549. Besides, the GI50 with MDA-MB-231 is 13.2 µM (inactive); in the assay with UACC-257, 17.4 µM (inactive); in the assay on A498, 15.3 µM (inactive); in the assay with UACC-62 it was 14.8 µM (inactive); in the assay with T47D, 2.45 µM (inactive); in the assay on SW-620, 5.36 µM (inactive). In addition, the GI50 is 17.2 µM (inactive) with SK-MEL-28; 20.7 µM (inactive) in the assay on NCI/ADR-RES; 4.06 µM (inactive) in the assay on MOLT-4; 23.3 µM (inactive) with SNB-75; 13.6 µM (inactive) in the assay on OVCAR-4; 16.1 µM (inactive) in the assay on NCI-H23. In addition, the GI50 in the assay with OVCAR-8 is 23.1 µM (inactive).
As for `OCC1OC(c2cccc3cc(O)c(O)cc23)CC1O` (centres undefined), the GI50 is > 100 µM (inactive) in the assay with NCI-H522; > 100 µM (inactive) with LOX IMVI; > 100 µM (inactive) with RPMI-8226; > 100 µM (inactive) with MDA-MB-435; 66.7 µM (inactive) in the assay on NCI-H226; > 100 µM (inactive) in the assay on A549. Moreover, the GI50 in the assay with MDA-MB-231, in the assay with UACC-257, with A498, in the assay with UACC-62, in the assay on T47D and in the assay on SW-620 was > 100 µM (inactive) in each case. The GI50 in the assay on SK-MEL-28, with NCI/ADR-RES, in the assay with HOP-62, with MOLT-4, in the assay on SNB-75 and with OVCAR-4 was > 100 µM (inactive) each time. The GI50 in the assay with OVCAR-8 was > 100 µM (inactive).
For the compound `O=c1[nH][nH]c(=O)n1CCCCCCn1c(=O)[nH][nH]c1=O`, the GI50 in the assay with NCI-H522, in the assay with LOX IMVI, with RPMI-8226, in the assay with MDA-MB-435, in the assay with NCI-H226 and in the assay on A549 was > 100 µM (inactive) throughout. Moreover, the GI50 in the assay on MDA-MB-231, with UACC-257, in the assay on A498, in the assay with UACC-62, in the assay with T47D and in the assay with SW-620 was > 100 µM (inactive) each time. Besides, the GI50 in the assay on SK-MEL-28, in the assay on NCI/ADR-RES, with MOLT-4, with SNB-75, in the assay on OVCAR-4 and with NCI-H23 was > 100 µM (inactive) throughout. The GI50 in the assay on OVCAR-8 was > 100 µM (inactive).
For the compound `O=C(C[n+]1ccccc1)N/N=C(\Cc1nc2ccc([N+](=O)[O-])cc2nc1O)C(=O)Nc1cc(Cl)c(Cl)cc1Cl`, the GI50 is 61.8 µM (inactive) in the assay with NCI-H522; 60.1 µM (inactive) in the assay with LOX IMVI; > 100 µM (inactive) in the assay on RPMI-8226; > 100 µM (inactive) in the assay on MDA-MB-435; 50.5 µM (inactive) with NCI-H226; > 100 µM (inactive) in the assay on A549. The GI50 is 41.9 µM (inactive) with MDA-MB-231; > 100 µM (inactive) in the assay with UACC-257; > 100 µM (inactive) with A498; > 100 µM (inactive) with UACC-62; 68.7 µM (inactive) in the assay with T47D; > 100 µM (inactive) with SW-620. The GI50 is > 100 µM (inactive) in the assay on SK-MEL-28; 60.1 µM (inactive) in the assay with NCI/ADR-RES; > 100 µM (inactive) in the assay with MOLT-4; 19.4 µM (inactive) in the assay on SNB-75; 79.4 µM (inactive) with OVCAR-4; > 100 µM (inactive) in the assay on NCI-H23. The GI50 in the assay with OVCAR-8 was > 100 µM (inactive).
